Source: US20220054513A1, “COMBINATION COMPOSITIONS COMPRISING A BETA-LACTAMASE INHIBITOR” (VenatoRx Pharmaceuticals, Inc., priority 2018, published 2022)
Read-outs that look alike come from different tables or passages of the source.

Assays:
MDR-Pseudomonas = assay: broth microdilution MIC of cefiderocol +/- Compound 1 in IDM, panel of 16 MDR Pseudomonas aeruginosa; format: cell-based, P. aeruginosa; details: for MIC: Pseudomonas aeruginosa, read-out: Minimum inhibitory concentration (MIC)
[1] = tested on: β-lactamase expressing E. coli; assay: broth microdilution MIC of cefiderocol +/- Compound 1, E. coli strains; format: cell-based; details: Escherichia coli
[2] = tested on: β-lactamase expressing P. mirabilis; assay: broth microdilution MIC of cefiderocol +/- Compound 1, P. mirabilis strain; format: cell-based; details: Proteus mirabilis, read-out: Minimum inhibitory concentration (MIC), P. mirabilis CDC-159 (NDM)
[3] = tested on: β-lactamase expressing K. pneumoniae; assay: broth microdilution MIC of cefiderocol +/- Compound 1, K. pneumoniae strains; format: cell-based; details: Klebsiella pneumoniae
[4] = tested on: β-lactamase expressing E. cloacae; assay: broth microdilution MIC of cefiderocol +/- Compound 1, E. cloacae strains; format: cell-based; details: Enterobacter cloacae
[5] = tested on: metallo- and serine-β-lactamase expressing CRE; assay: checkerboard assay of cefiderocol and Compound 1 in IDM, 22 CRE isolates; format: cell-based, Enterobacteriaceae; details: Compound 1 0 μg/mL
[6] = panel of 16 MDR Pseudomonas aeruginosa, IDM

CC(C)(O/N=C(\C(=O)N[C@@H]1C(=O)N2C(C(=O)[O-])=C(C[N+]3(CCNC(=O)c4ccc(O)c(O)c4Cl)CCCC3)CS[C@H]12)c1csc(N)n1)C(=O)O [FDC, cefiderocol]
MIC (MDR-Pseudomonas; P. aeruginosa 40, IDM): 4 µg/mL
MIC (MDR-Pseudomonas; P. aeruginosa 451, IDM): 4 µg/mL
MIC (MDR-Pseudomonas; P. aeruginosa 635, IDM): 0.5 µg/mL
MIC (MDR-Pseudomonas; P. aeruginosa 152021, IDM): 0.25 µg/mL
MIC (MDR-Pseudomonas; P. aeruginosa 1013996, IDM): 0.25 µg/mL
MIC (MDR-Pseudomonas; P. aeruginosa 1121828, IDM): 1 µg/mL
MIC (MDR-Pseudomonas; P. aeruginosa 1131170, IDM): 2 µg/mL
MIC (MDR-Pseudomonas; P. aeruginosa 1179543, IDM): 2 µg/mL
MIC (MDR-Pseudomonas; P. aeruginosa CDC-0054, IDM): 0.5 µg/mL
MIC (MDR-Pseudomonas; P. aeruginosa CDC-0064, IDM): 0.5 µg/mL
MIC (MDR-Pseudomonas; P. aeruginosa CDC-0095, IDM): 0.059 µg/mL
MIC (MDR-Pseudomonas; P. aeruginosa CDC-0103, IDM): 4 µg/mL
MIC (MDR-Pseudomonas; P. aeruginosa CDC-0108, IDM): 0.25 µg/mL
MIC (MDR-Pseudomonas; P. aeruginosa CDC-0110, IDM): 8 µg/mL
MIC (MDR-Pseudomonas; P. aeruginosa CDC-0111, IDM): 0.059 µg/mL
MIC (MDR-Pseudomonas): 0.125 µg/mL
MIC50 (MDR-Pseudomonas; [6]): 0.5 µg/mL
MIC90 (MDR-Pseudomonas; [6]): 4 µg/mL
MIC ([1]; read-out: Minimum inhibitory concentration (MIC), E. coli 128 (AmpC, SHV-12, TOHO-2, TEM-1), IDM): 0.5 µg/mL
MIC ([1]; read-out: Minimum inhibitory concentration (MIC), E. coli 128 (AmpC, SHV-12, TOHO-2, TEM-1), MHBII): 2 µg/mL
MIC ([1]; read-out: Minimum inhibitory concentration (MIC), E. coli 3073 (AmpC, CTX-M3), IDM): 0.5 µg/mL
MIC ([1]; read-out: Minimum inhibitory concentration (MIC), E. coli 3073 (AmpC, CTX-M3), MHBII): 8 µg/mL
MIC ([1]; read-out: Minimum inhibitory concentration (MIC), E. coli 3327 (TEM-1, SHV-12), IDM): 0.125 µg/mL
MIC ([1]; read-out: Minimum inhibitory concentration (MIC), E. coli 3327 (TEM-1, SHV-12), MHBII): 0.5 µg/mL
MIC ([1]; read-out: Minimum inhibitory concentration (MIC), E. coli 786978 (KPC 2), IDM): 0.25 µg/mL
MIC ([1]; read-out: Minimum inhibitory concentration (MIC), E. coli 786978 (KPC 2), MHBII): 4 µg/mL
MIC ([1]; read-out: Minimum inhibitory concentration (MIC), E. coli 787112 (OXA 48), IDM): 64 µg/mL
MIC ([1]; read-out: Minimum inhibitory concentration (MIC), E. coli 787112 (OXA 48), MHBII): 64 µg/mL
MIC ([1]; read-out: Minimum inhibitory concentration (MIC), E. coli CDC-61 (KPC-3 TEM-1), IDM): 0.125 µg/mL
MIC ([1]; read-out: Minimum inhibitory concentration (MIC), E. coli CDC-61 (KPC-3 TEM-1), MHBII): 0.25 µg/mL
MIC ([1]; read-out: Minimum inhibitory concentration (MIC), E. coli CDC-114 (KPC-3), IDM): 0.5 µg/mL
MIC ([1]; read-out: Minimum inhibitory concentration (MIC), E. coli CDC-114 (KPC-3), MHBII): 4 µg/mL
MIC ([1]; read-out: Minimum inhibitory concentration (MIC), E. coli CDC-150 (NDM-5), IDM): 4 µg/mL
MIC ([1]; read-out: Minimum inhibitory concentration (MIC), E. coli CDC-150 (NDM-5), MHBII): 128 µg/mL
MIC ([1]; read-out: Minimum inhibitory concentration (MIC), E. coli GUE 131 (NDM-1), IDM): 1 µg/mL
MIC ([1]; read-out: Minimum inhibitory concentration (MIC), E. coli GUE 131 (NDM-1), MHBII): 2 µg/mL
MIC ([1]; read-out: Minimum inhibitory concentration (MIC), E. coli SI-151 (VIM-1), IDM): 0.125 µg/mL
MIC ([1]; read-out: Minimum inhibitory concentration (MIC), E. coli SI-151 (VIM-1), MHBII): 0.5 µg/mL
MIC ([1]; read-out: Minimum inhibitory concentration (MIC), E. coli SI-152 (NDM-1), IDM): 0.125 µg/mL
MIC ([1]; read-out: Minimum inhibitory concentration (MIC), E. coli SI-152 (NDM-1), MHBII): 0.125 µg/mL
MIC ([1]; read-out: Minimum inhibitory concentration (MIC), E. coli SI-155S (VIM-1), IDM): 1 µg/mL
MIC ([1]; read-out: Minimum inhibitory concentration (MIC), E. coli SI-155S (VIM-1), MHBII): 2 µg/mL
MIC ([1]; read-out: Minimum inhibitory concentration (MIC), E. coli SI-P026TC (CMY-2, TEM-1), IDM): 0.125 µg/mL
MIC ([1]; read-out: Minimum inhibitory concentration (MIC), E. coli SI-P026TC (CMY-2, TEM-1), MHBII): 0.25 µg/mL
MIC ([2]; IDM): 4 µg/mL
MIC ([2]; MHBII): 32 µg/mL
MIC ([3]; read-out: Minimum inhibitory concentration (MIC), K. pneummoniae CDC-34 (IMP), IDM): 0.125 µg/mL
MIC ([3]; read-out: Minimum inhibitory concentration (MIC), K. pneummoniae CDC-34 (IMP), MHBII): 2 µg/mL
MIC ([3]; read-out: Minimum inhibitory concentration (MIC), K. pneummoniae CDC-40 (VIM), IDM): 1 µg/mL
MIC ([3]; read-out: Minimum inhibitory concentration (MIC), K. pneummoniae CDC-40 (VIM), MHBII): 2 µg/mL
MIC ([3]; read-out: Minimum inhibitory concentration (MIC), K. pneummoniae CDC-41 (NDM), IDM): 8 µg/mL
MIC ([3]; read-out: Minimum inhibitory concentration (MIC), K. pneummoniae CDC-41 (NDM), MHBII): 128 µg/mL
MIC ([3]; read-out: Minimum inhibitory concentration (MIC), K. pneummoniae CDC-140 (OXA-181), IDM): 0.25 µg/mL
MIC ([3]; read-out: Minimum inhibitory concentration (MIC), K. pneummoniae CDC-140 (OXA-181), MHBII): 0.5 µg/mL
MIC ([3]; read-out: Minimum inhibitory concentration (MIC), K. pneummoniae CDC-153 (NDM, OXA-232), IDM): 0.06 µg/mL
MIC ([3]; read-out: Minimum inhibitory concentration (MIC), K. pneummoniae CDC-153 (NDM, OXA-232), MHBII): 32 µg/mL
MIC ([3]; read-out: Minimum inhibitory concentration (MIC), K. pneumoniae 847204 (KPC-2), IDM): 0.5 µg/mL
MIC ([3]; read-out: Minimum inhibitory concentration (MIC), K. pneumoniae 847204 (KPC-2), MHBII): 16 µg/mL
MIC ([3]; read-out: Minimum inhibitory concentration (MIC), K. pneumoniae 847375 (SHV-12, KPC-2), IDM): 2 µg/mL
MIC ([3]; read-out: Minimum inhibitory concentration (MIC), K. pneumoniae 847375 (SHV-12, KPC-2), MHBII): 32 µg/mL
MIC ([3]; read-out: Minimum inhibitory concentration (MIC), K. pneumoniae 847747 (CTX-M-2, KPC), IDM): 0.125 µg/mL
MIC ([3]; read-out: Minimum inhibitory concentration (MIC), K. pneumoniae 847747 (CTX-M-2, KPC), MHBII): 8 µg/mL
MIC ([3]; read-out: Minimum inhibitory concentration (MIC), K. pneumoniae KIRK (OXA-162), IDM): 0.25 µg/mL
MIC ([3]; read-out: Minimum inhibitory concentration (MIC), K. pneumoniae KIRK (OXA-162), MHBII): 32 µg/mL
MIC ([3]; read-out: Minimum inhibitory concentration (MIC), K. pneumoniae KPC157 (KPC-3), IDM): 0.5 µg/mL
MIC ([3]; read-out: Minimum inhibitory concentration (MIC), K. pneumoniae KPC157 (KPC-3), MHBII): 8 µg/mL
MIC ([3]; read-out: Minimum inhibitory concentration (MIC), K. pneumoniae KPC261 (KPC-2), IDM): 0.5 µg/mL
MIC ([3]; read-out: Minimum inhibitory concentration (MIC), K. pneumoniae KPC261 (KPC-2), MHBII): 16 µg/mL
MIC ([3]; read-out: Minimum inhibitory concentration (MIC), K. pneumoniae OMAN 13 (NDM-1), IDM): 2 µg/mL
MIC ([3]; read-out: Minimum inhibitory concentration (MIC), K. pneumoniae OMAN 13 (NDM-1), MHBII): 32 µg/mL
MIC ([3]; read-out: Minimum inhibitory concentration (MIC), K. pneumoniae SI-117 (VIM-1), IDM): 4 µg/mL
MIC ([3]; read-out: Minimum inhibitory concentration (MIC), K. pneumoniae SI-117 (VIM-1), MHBII): 16 µg/mL
MIC ([4]; read-out: Minimum inhibitory concentration (MIC), E. cloacae CDC-93 (KPC), IDM): 0.5 µg/mL
MIC ([4]; read-out: Minimum inhibitory concentration (MIC), E. cloacae CDC-93 (KPC), MHBII): 1 µg/mL
MIC ([4]; read-out: Minimum inhibitory concentration (MIC), E. cloacae CDC-161 (IMP), IDM): 1 µg/mL
MIC ([4]; read-out: Minimum inhibitory concentration (MIC), E. cloacae CDC-161 (IMP), MHBII): 16 µg/mL
MIC ([4]; read-out: Minimum inhibitory concentration (MIC), E. cloacae Entb239 (p99 AmpC, KPC-3, CTXM-15, GES-1, IMI-1), IDM): 2 µg/mL
MIC ([4]; read-out: Minimum inhibitory concentration (MIC), E. cloacae Entb239 (p99 AmpC, KPC-3, CTXM-15, GES-1, IMI-1), MHBII): 1 µg/mL
% of strains inhibited ([5]; cefiderocol 0.06 μg/mL): 5%
% of strains inhibited ([5]; cefiderocol 0.125 μg/mL): 5%
% of strains inhibited ([5]; cefiderocol 0.25 μg/mL): 5%
% of strains inhibited ([5]; cefiderocol 0.5 μg/mL): 15%
% of strains inhibited ([5]; cefiderocol 1 μg/mL): 20%
% of strains inhibited ([5]; cefiderocol 2 μg/mL): 60%
% of strains inhibited ([5]; cefiderocol 4 μg/mL): 75%
% of strains inhibited ([5]; cefiderocol 8 μg/mL): 90%
% of strains inhibited ([5]; cefiderocol 16 μg/mL): 90%
% of strains inhibited ([5]; cefiderocol 32 μg/mL): 95%
